Entries after “also recorded” stand apart in the source; their conditions may differ. Blank lines part the entries; values can stand above or below the molecule they belong to.
Assays:
Hepa129 cells = experiment: Orthotopic hepatocellular carcinoma model associated with fibrosis, Hepa129 cells in C3H/He mice; format: in vivo, mouse; conditions: 50 mg/kg, 3 times per week from day 5; quantified fifteen days after tumor implantation; vs saline
Description: On day 28, mice were anesthetized and orthotopic tumors were established by sub-capsular inoculation of 1.25×10^5 Hepa129 cells into the left liver lobe by laparotomy (day 0). Five days after tumor implantation, mice were distributed in groups (n=6-8/group) and received: i) saline (control, FIG. 5A, left panel); ii) acetylated ANTARTINA® (50 mg/kg, 3 times per week, FIG. 5A, right panel). Fifteen days after tumor implantation, mice were sacrificed and tumor volume was quantified, as depicted in FIG. 5B (control, left panel; acetylated ANTARTINA®, right panel).
Experimental model of HCC associated with fibrosis: C3H/He mice were treated intraperitoneally (i.p) with 200 mg/kg of thioacetamide (TAA) (Sigma-Aldrich, St. Louis, USA) 3 times a week for 4 weeks. On day 28, mice were anesthetized and orthotopic tumors were established by sub-capsular inoculation of 1.25×10^5 Hepa129 cells into the left liver lobe by laparotomy (day 0). Five days after tumor implantation, mice were distributed in groups (n=6-8/group) and received: i) saline (control); ii) acetylated ANTARTINA® (50 mg/kg, 3 times per week). (See, FIG. 5A). Fifteen days after tumor implantation, mice were sacrificed and tumor volume was quantified. (See, FIG. 5B).

CT26 cells [1] = experiment: Subcutaneous CRC model, CT26 cells in BALB/c mice; format: in vivo, mouse; conditions: 50 mg/kg i.p., 3 times per week over 3 weeks; s.c. CT26 tumors in BALB/c mice; compared with ANTARTINA and tricin
Excerpt: FIG. 4 depicts cell size (mm^3) in mice of CT26 tumors after CT26 cell line injection into mice. […] The bottom panel provides a summary of all results in one graph.
Mouse CT26 tumor cell line, an undifferentiated murine colorectal carcinoma (CRC) cell line established from N-nitroso-N-methylurethan-induced transplantable tumor in BALB/c (H-2d) mice, BNL cells (an hepatoma cell line) were used in the studies below and can be obtained from the University of Navarra, Spain. Human cell lines were from American Type Culture Collection (ATCC, Manassas, Va., US), including LoVo (ATCC-CCL229), ASG (ATCC-CCRL-79) and lung fibroblast Wi38 (ATCC-CCL75). All lines were tested for mycoplasma and cultured in complete DMEM (GIBCO, Themo Fisher Scientific, mM glutamine, 100 U/mL penicillin, […] streptomycin, and 10% heat inactivated fetal bovine serum (FBS, GIBCO, Thermo Fisher Scientific) and incubated 37° C. in 5% CO2.
Subcutaneous CRC model: Six-to-eight-week-old male BALB/c mice were used. CT26 cells were injected at a dose of 5×10^5 cells subcutaneously (s.c.) into the right flank of BALB/c mice (day 0). Tumors were allowed to reach ^˜90 mm^3 in size before treatment. […] Tumor growth was assessed by caliper measurement. Tumor volume was calculated using the following formula: tumor volume (mm^3)=length×(width) 2/2.

CRC [2] = experiment: Immunocompetent CRC mouse model; format: in vivo
Excerpt: (§1) In colorectal carcinoma (CRC) patients, distant metastatic disease is present at initial diagnosis in nearly 25% of patients. The majority of patients with metastatic CRC have an incurable disease; therefore, new therapies are needed to address this cancer. […] ANTARTINA® is an antitumor agent isolated from Deschampsia antarctica Desv. In that study, the aim was to evaluate the antitumor properties of ANTARTINA® in CRC models. Human and murine CRC cell lines were employed to investigate proliferation, apoptosis, and cell cycle effects of ANTARTINA® therapy in vitro. Immune response of ANTARTINA® against cancer cells in the CRC model was also investigated using a cytotoxic T lymphocyte (CTL) assay, analyzing dendritic cell activation and intratumor T cell sub-population, and by tumor re-challenge experiments.

human CRC cell = experiment: In vitro human CRC cell proliferation; format: cell-based
Excerpt: as §1

CT26 cells [3] = experiment: Murine CRC model (CT26 cells) in BALB/c mice, combination with AdIL-12 gene therapy; format: in vivo, mouse; conditions: mice with regression/mice in group; ANTARTINA 50 mg/kg 3 doses per week; AdIL12 10^9 TCID50 intratumorally, one dose at day 15
Excerpt: Mouse CT26 cells (5×10^5) were subcutaneously inoculated on day 0. On day 7, when tumors reached a diameter of 5-7 mm, animals were divided into 4 groups: saline, ANTARTINA®, AdIL12, and the combination of ANTARTINA® and AdIL-12. Tumor volume is shown in the left panel vs. days after CT26 inoculation. Excised tumors are depicted in the right panel.
Adenovirus IL-12 constructs are as previously reported. (Mazzolini et al., Cancer Gene Therapy, 6(6):514-522, 1999).
This is a murine model of CRC (CT26 cells) established in BALB/c mice. Mouse CT26 cells (5×10^5) were subcutaneously inoculated on day 0. On day 7, when tumors reached a diameter of 5-7 mm, animals were divided into 4 groups: saline, ANTARTINA® 50 mg/kg, 3 doses per week (systemically), AdIL12 (adenovirus encoding murine IL-12, dose: 10^9 TCID50, intratumorally, one dose at day 15 after tumor inoculation), and the combination of ANTARTINA® and AdIL-12. Tumor volume was measured with a caliper 3 times per week. […] Complete tumor regressions: saline […], AdIL-12 1/5, Antartina 2/5, and combined therapy: 4/5. (FIG. 6).

CRC [4] = experiment: Cytotoxic T lymphocyte (CTL) assay; format: cell-based
Excerpt: as §1

dendritic cell = experiment: Dendritic cell activation; format: cell-based
Excerpt: as §1

melting point: 260.2 to 263.3 °C
Compound: COc1cc(-c2cc(=O)c3c(O)cc(O[C@@H]4O[C@H](CO)[C@H](O)[C@H](O)[C@H]4O)cc3o2)cc(OC)c1O (stereo in doubt)

melting point: 243.2 to 246.5 °C
Compound: COc1cc(-c2cc(=O)c3c(O)cc(O[C@@H]4O[C@H](CO)[C@@H](O[C@@H]5O[C@H](CO)[C@@H](O)[C@H](O)[C@H]5O)[C@H](O)[C@H]4O)cc3o2)cc(OC)c1O (stereo in doubt)

melting point: 275.4 to 279.2 °C
Compound: COc1cc(-c2cc(=O)c3c(O)cc(O[C@@H]4O[C@H](CO)[C@@H](O[C@@H]5O[C@H](CO)[C@H](O)[C@H](O)[C@H]5O)[C@H](O)[C@H]4O)cc3o2)cc(OC)c1O (stereo in doubt)

More lines, now with the values behind:

Compound: COc1cc(-c2cc(=O)c3c(OC(C)=O)cc(O[C@@H]4O[C@H](COC(C)=O)[C@@H](OC(C)=O)[C@H](OC(C)=O)[C@H]4OC(C)=O)cc3o2)cc(OC)c1OC(C)=O [acetylated ANTARTINA®, Tricin 7-O-β-D-glucopyranoside, Per Acetylated]
melting point: 239.1 to 241.8 °C
tumor volume (Hepa129 cells): markedly reduced the tumor volume
tumor size (antitumoral effect) (CT26 cells [1]): superior antitumoral effect in comparison with native ANTARTINA®; also recorded: clearly and markedly reduced tumor size at a higher rate than observed for any of the other tested agents

Compound: COc1cc(-c2cc(=O)c3c(O)cc(O[C@@H]4O[C@H](CO)[C@@H](O)[C@H](O)[C@H]4O)cc3o2)cc(OC)c1O [ANTARTINA®, tricin 7-O-β-D-glucopyranoside]
toxic effects (CRC [2]; at the doses employed): No toxic effects were observed
animal survival rate (CRC [2]; mouse, in vivo): increased
complete tumor regressions (CRC [2]; mouse, in vivo): > 30 % of mice
tumor growth and liver metastases (CRC [2]; mouse, in vivo): potently inhibited
tumor immunogenicity (CRC [2]; mouse, in vivo): increased tumor immunogenicity
antitumor immunity (tumor re-challenge) (CRC [2]; tumor re-challenge experiments): long lasting antitumor immunity
in vitro human CRC cell proliferation (human CRC cell): inhibits
complete tumor regressions (CT26 cells [3]): 2/5
specific cytotoxic T cell response against CRC (CRC [4]): induced a potent specific cytotoxic T cell response
dendritic cell activation (dendritic cell): stimulated dendritic cell activation

Compound: COc1cc(-c2cc(=O)c3c(O)cc(O[C@@H]4O[C@H](COC(C)=O)[C@H](OC(C)=O)[C@H](OC(C)=O)[C@H]4OC(C)=O)cc3o2)cc(OC)c1O (stereo in doubt)
melting point: 117.2 to 121.8 °C
